Each compound was assayed on HCV replication (assay: Replicon Assay (Huh-lucubineo-ET cells, luciferase readout)). Settings: Hepatitis C virus; ET (Huh-lucubineo-ET) HCV replicon cell line; luciferase activity 48-72 hours after compound addition; 6 dilutions.
Assay type: cell-based
Procedure, shortened: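 Huh-lucubineo-ET cells stably carrying a firefly luciferase-ubiquitin-neo/NS3-5B ET replicon (adaptive mutations E1202G, T1280I, K1846T) were plated 24 h before compound, then treated at 5 or 50 μM or six 3-fold dilutions. Luciferase read 48-72 h later; % inhibition vs no-compound control, EC50/TC50 from Hill-equation fit.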

Row | SMILES | EC50 [nM]
1 | [O-][n+]1cc(Cn2cc3nc(-c4cccc(F)c4F)nc-3cn2)ccc1-c1ccc(C(F)(F)F)cc1C(F)(F)F [Compound 345, 5-[6-(2,4-Bis-trifluoromethyl-phenyl)-1-oxy-pyridin-3-ylmethyl]-2-(2,3-difluoro-phenyl)-5H-imidazo[4,5-d]pyridazine] | 80
2 | COc1ccc(-c2ccc(Cn3cc4nc(-c5cccc(F)c5F)nc-4cn3)cc2C(=O)O)c(C(F)(F)F)c1 [Compound 346, 4-[2-(2,3-Difluoro-phenyl)-imidazo[4,5-d]pyridazin-5-ylmethyl]-4′-methoxy-2′-trifluoromethyl-biphenyl-2-carboxylic acid] | ≥ 50000
3 | CCCCc1ccc(-c2ccc(Cn3cc4nc(-c5cccc(F)c5F)nc-4cn3)cn2)cc1C(F)(F)F [Compound 347, 5-[6-(4-Butyl-3-trifluoromethyl-phenyl)-pyridin-3-ylmethyl]-2-(2,3-difluoro-phenyl)-5H-imidazo[4,5-d]pyridazine] | 2590
4 | COc1ccc(-c2ccc(Cn3cc4nc(-c5cccc(F)c5F)nc-4cn3)c(OCCCO)c2)c(C(F)(F)F)c1 [Compound 348, 3-{4-[2-(2,3-Difluoro-phenyl)-imidazo[4,5-d]pyridazin-5-ylmethyl]-4′-methoxy-2′-trifluoromethyl-biphenyl-3-yloxy}-propan-1-ol] | 279
5 | COc1ccc(-c2ccc(Cn3cc4nc(-c5cccc(F)c5F)nc-4cn3)c(OCCCN3CCOCC3)c2)c(C(F)(F)F)c1 [Compound 349, 2-(2,3-Difluoro-phenyl)-5-[4′-methoxy-3-(3-morpholin-4-yl-propoxy)-2′-trifluoromethyl-biphenyl-4-ylmethyl]-5H-imidazo[4,5-d]pyridazine] | 6260
6 | Oc1ccc(-c2ccc(Cn3cc4nc(-c5cccc(F)c5F)nc-4cn3)nn2)c(C(F)(F)F)c1 [Compound 350, 4-{6-[2-(2,3-Difluoro-phenyl)-imidazo[4,5-d]pyridazin-5-ylmethyl]-pyridazin-3-yl}-3-trifluoromethyl-phenol] | ≥ 50000
7 | FCCCOc1ccc(-c2ccc(Cn3cc4nc(-c5cccc(F)c5F)nc-4cn3)nn2)c(C(F)(F)F)c1 [Compound 351, 2-(2,3-Difluoro-phenyl)-5-{6-[4-(3-fluoro-propoxy)-2-trifluoromethyl-phenyl]-pyridazin-3-ylmethyl}-5H-imidazo[4,5-d]pyridazine] | 25
8 | FCCOc1ccc(-c2ccc(Cn3cc4nc(-c5cccc(F)c5F)nc-4cn3)nn2)c(C(F)(F)F)c1 [Compound 352, 2-(2,3-Difluoro-phenyl)-5-{6-[4-(2-fluoro-ethoxy)-2-trifluoromethyl-phenyl]-pyridazin-3-ylmethyl}-5H-imidazo[4,5-d]pyridazine] | 22.8
9 | O=S(=O)(Oc1ccc(-c2ccc(Cn3cc4nc(-c5cccc(F)c5F)nc-4cn3)nn2)c(C(F)(F)F)c1)C(F)(F)F [Compound 353, Trifluoro-methanesulfonic acid 4-{6-[2-(2,3-difluoro-phenyl)-imidazo[4,5-d]pyridazin-5-ylmethyl]-pyridazin-3-yl}-3-trifluoromethyl-phenyl ester] | 1190
10 | Fc1cccc(-c2nc3cnn(Cc4ccc(-c5ccc(-c6cccs6)cc5C(F)(F)F)nn4)cc-3n2)c1F [Compound 354, 2-(2,3-Difluoro-phenyl)-5-[6-(4-thiophen-2-yl-2-trifluoromethyl-phenyl)-pyridazin-3-ylmethyl]-5H-imidazo[4,5-d]pyridazine] | 225
11 | Fc1cccc(-c2nc3cnn(Cc4ccc(N5CCOCC5)nn4)cc-3n2)c1F [Compound 355, 2-(2,3-Difluoro-phenyl)-5-(6-morpholin-4-yl-pyridazin-3-ylmethyl)-5H-imidazo[4,5-d]pyridazine] | ≥ 50000
12 | COc1ccc(-c2ccc(Cn3cc4nc(-c5cccc(F)c5F)nc-4cn3)cc2N)c(C(F)(F)F)c1 [Compound 356, 4-[2-(2,3-Difluoro-phenyl)-imidazo[4,5-d]pyridazin-5-ylmethyl]-4′-methoxy-2′-trifluoromethyl-biphenyl-2-ylamine] | 100
13 | CCCOc1ccc(-c2ccc(Cn3cc4nc(-c5cccc(F)c5F)nc-4cn3)cc2N)cc1 [Compound 357, 4-[2-(2,3-Difluoro-phenyl)-imidazo[4,5-d]pyridazin-5-ylmethyl]-4′-propoxy-biphenyl-2-ylamine] | ≥ 50000
14 | COc1ccc(-c2ccc(Cn3cc4nc(-c5cccc(F)c5F)nc-4cn3)nc2N)c(C(F)(F)F)c1 [Compound 358, 6-[2-(2,3-Difluoro-phenyl)-imidazo[4,5-d]pyridazin-5-ylmethyl]-3-(4-methoxy-2-trifluoromethyl-phenyl)-pyridin-2-ylamine] | 291
15 | COc1ccc(-c2ccc(Cn3cc4nc(-c5cccc(F)c5F)nc-4cn3)nc2O)c(C(F)(F)F)c1 [Compound 359, 6-[2-(2,3-Difluoro-phenyl)-imidazo[4,5-d]pyridazin-5-ylmethyl]-3-(4-methoxy-2-trifluoromethyl-phenyl)-pyridin-2-ol] | 2230
16 | Nc1nc(-c2ccc(C(F)(F)F)cc2C(F)(F)F)ccc1Cn1cc2nc(-c3cccc(F)c3F)nc-2cn1 [Compound 360, 6-(2,4-Bis-trifluoromethyl-phenyl)-3-[2-(2,3-difluoro-phenyl)-imidazo[4,5-d]pyridazin-5-ylmethyl]-pyridin-2-ylamine] | 11
17 | Oc1nc(-c2ccc(C(F)(F)F)cc2C(F)(F)F)ccc1Cn1cc2nc(-c3cccc(F)c3F)nc-2cn1 [Compound 361, 6-(2,4-Bis-trifluoromethyl-phenyl)-3-[2-(2,3-difluoro-phenyl)-imidazo[4,5-d]pyridazin-5-ylmethyl]-pyridin-2-ol] | 13700
18 | CCCOc1ccc(-c2ncc(Cn3cc4nc(-c5ccccc5F)nc-4cn3)cn2)c(C(F)(F)F)c1 [Compound 362, 2-(2-Fluoro-phenyl)-5-[2-(4-propoxy-2-trifluoromethyl-phenyl)-pyrimidin-5-ylmethyl]-5H-imidazo[4,5-d]pyridazine] | 19
19 | CCCOc1ccc(-c2ncc(Cn3cc4nc(-c5cccc(F)c5F)nc-4cn3)cn2)c(C(F)(F)F)c1 [Compound 363, 2-(2,3-Difluoro-phenyl)-5-[2-(4-propoxy-2-trifluoromethyl-phenyl)-pyrimidin-5-ylmethyl]-5H-imidazo[4,5-d]pyridazine] | 5
20 | Nc1ccc(-c2ccc(Cn3cc4nc(-c5cccc(F)c5F)nc-4cn3)cn2)c(C(F)(F)F)c1 [Compound 364, 4-{5-[2-(2,3-Difluoro-phenyl)-imidazo[4,5-d]pyridazin-5-ylmethyl]-pyridin-2-yl}-3-trifluoromethyl-phenylamine] | ≥ 50000
21 | Cc1ccc(-c2ccc(Cn3cc4nc(-c5cccc(F)c5F)nc-4cn3)cn2)c(C(F)(F)F)c1 [Compound 376, 2-(2,3-Difluoro-phenyl)-5-[6-(4-methyl-2-trifluoromethyl-phenyl)-pyridin-3-ylmethyl]-5H-imidazo[4,5-d]pyridazine] | 131
